In the NIST ThermoML archive (doi:10.1016/j.jct.2016.08.038):

Details: Liquid; for electrical conductivity: Frequency=0.001 MHz, Alternating current cell with electrodes; for speed of sound: Frequency=3 MHz, Sing-around technique in a fixed-path interferometer; for kinematic viscosity: Capillary tube (Ostwald / Ubbelohde) method; for mass density: Vibrating tube method; for surface tension liquid-gas: Drop volume

CC[n+]1ccccc1.O=S(=O)([O-])C(F)(F)F [1-ethylpyridinium triflate]
Details | electrical conductivity [S/m] | kinematic viscosity [m2/s] | mass density [kg/m3] | speed of sound [m/s]
293.15 K, 100 kPa | 0.407 | – | – | 1500.4
293.15 K, 101.33 kPa | – | 6.89e-05 | 1409.09 | –
295.65 K, 100 kPa | 0.456 | – | – | 1495
295.65 K, 101.33 kPa | – | 6.14e-05 | 1407.09 | –
298.15 K, 100 kPa | 0.502 | – | – | 1489.1
298.15 K, 101.33 kPa | – | 5.47e-05 | 1405.03 | –
300.65 K, 100 kPa | 0.556 | – | – | 1483.4
300.65 K, 101.33 kPa | – | 4.95e-05 | 1402.96 | –
303.15 K, 100 kPa | 0.613 | – | 1400.91 | 1477.7
303.15 K, 101.33 kPa | – | 4.45e-05 | 1400.9 | –
303.15 K, 5000 kPa | – | – | 1403.53 | –
303.15 K, 10000 kPa | – | – | 1406.14 | –
303.15 K, 15000 kPa | – | – | 1408.69 | –
303.15 K, 20000 kPa | – | – | 1411.17 | –
303.15 K, 25000 kPa | – | – | 1413.58 | –
303.15 K, 30000 kPa | – | – | 1415.93 | –
303.15 K, 35000 kPa | – | – | 1418.22 | –
303.15 K, 40000 kPa | – | – | 1420.44 | –
305.65 K, 100 kPa | 0.676 | – | – | 1471.9
305.65 K, 101.33 kPa | – | 4.02e-05 | 1398.85 | –
308.15 K, 100 kPa | 0.744 | – | – | 1466.3
308.15 K, 101.33 kPa | – | 3.63e-05 | 1396.8 | –
310.65 K, 100 kPa | 0.808 | – | – | 1461.1
310.65 K, 101.33 kPa | – | 3.3e-05 | 1394.77 | –
313.15 K, 100 kPa | 0.872 | – | – | 1455
313.15 K, 101.33 kPa | – | 3.01e-05 | 1392.77 | –
315.65 K, 100 kPa | 0.953 | – | – | 1450
315.65 K, 101.33 kPa | – | 2.75e-05 | 1390.68 | –
318.15 K, 100 kPa | 1.02 | – | – | 1444
318.15 K, 101.33 kPa | – | 2.52e-05 | 1388.63 | –
320.65 K, 100 kPa | 1.13 | – | – | 1438.2
320.65 K, 101.33 kPa | – | 2.31e-05 | 1386.59 | –
323.15 K, 100 kPa | 1.21 | – | – | 1433.2
323.15 K, 101.33 kPa | – | 2.13e-05 | 1384.6 | –

Details | surface tension liquid-gas [mN/m]
293.15 K | 42.48
295.65 K | 42.36
298.15 K | 42.26
300.65 K | 42.15
303.15 K | 42.08
305.65 K | 42.02
308.15 K | 41.93
310.65 K | 41.83
313.15 K | 41.71
315.65 K | 41.65
318.15 K | 41.55
320.65 K | 41.43
